In US5750754A, “Heterocyclic compounds” (Zeneca Limited, priority 1993, dated 1998):

How the values were obtained:
[1] = target: T1, human, citrated, platelet-rich plasma (Homo sapiens, UniProt P05106+P08514); assay: Test (a): inhibition of ADP stimulated platelet aggregation (Born); assay type: cell-based; settings: ADP induced aggregation of human platelet-rich plasma; read-out: Test (a): pA2 value indicating potency of platelet aggregation inhibition (converted)
T1 construct: aggregating human, citrated, platelet-rich plasma; endogenous in cells; host or cells: human platelets in citrated platelet-rich plasma
Method in brief: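 pA2 calculated by comparing ADP EC50-type (50% response) values in presence and absence of compound, averaged across concentrations (generally 10-^5 M to 10-^10 M). Aggregation (Born) induced by ADP in citrated human platelet-rich plasma, giving dose-response curves.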

[2] = target: T2, purified human platelet fibrinogen receptor (GPIIb/IIIa) (Homo sapiens, UniProt P05106+P08514); assay: Test (b): GPIIb/IIIa ELISA, inhibition of biotinylated fibrinogen binding
T2 construct: is isolated from human platelet lysates; from tissue
Method in brief: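 Inhibition of biotinylated fibrinogen ([…]) binding to immobilised human platelet fibrinogen receptor, purified by KYGRGDS peptide affinity chromatography, was measured after 2 h at 30 °C. Readout: streptavidin–biotin-HRP colour with TMB at […]; value expressed as pIC50.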

αv β3 = αv β3 (Homo sapiens, UniProt P05106+P06756); assay: Binding of αv β3 to vitronectin; settings: read-out: pIC50, binding of αv β3 to vitronectin (converted)
αv β1 = assay: Binding of αv β1 to fibronectin
[3] = system: Alderley Park Wistar rats; assay: Repeated oral dose study in the rat (liver effects, tolerability); assay type: in vivo
Protocol: The following is a description of a study of the effects of the (-)-(3R) compound of Example 246 and the corresponding (3RS)-racemic mixture of Example 203 in the rat. Four groups of ten Alderley Park Wistar rats (each group comprising 5 male and 5 female rats) were dose orally with the (3RS)-racemic mixture of Example 203 at daily doses of 0, 25, 100 or 500 mg/kg. Dosing was continued for a total of seven days. The animals were killed and examined.
Four groups of ten Alderley Park Wistar rats (each group comprising 5 male and 5 female rats) were dosed orally with the (-)-(3R) compound of Example 246 at daily doses of 0, 50, 250 and 1000 mg/kg. The highest dose was not tolerated. After four or five days, four of the animals from this group were killed. The remaining six animals were dosed at 500 mg/kg/day for the remainder of the study. Dosing was continued for a total of fourteen days. The animals were killed and examined.

T2 sequence (P08514 32-887 limits assumed): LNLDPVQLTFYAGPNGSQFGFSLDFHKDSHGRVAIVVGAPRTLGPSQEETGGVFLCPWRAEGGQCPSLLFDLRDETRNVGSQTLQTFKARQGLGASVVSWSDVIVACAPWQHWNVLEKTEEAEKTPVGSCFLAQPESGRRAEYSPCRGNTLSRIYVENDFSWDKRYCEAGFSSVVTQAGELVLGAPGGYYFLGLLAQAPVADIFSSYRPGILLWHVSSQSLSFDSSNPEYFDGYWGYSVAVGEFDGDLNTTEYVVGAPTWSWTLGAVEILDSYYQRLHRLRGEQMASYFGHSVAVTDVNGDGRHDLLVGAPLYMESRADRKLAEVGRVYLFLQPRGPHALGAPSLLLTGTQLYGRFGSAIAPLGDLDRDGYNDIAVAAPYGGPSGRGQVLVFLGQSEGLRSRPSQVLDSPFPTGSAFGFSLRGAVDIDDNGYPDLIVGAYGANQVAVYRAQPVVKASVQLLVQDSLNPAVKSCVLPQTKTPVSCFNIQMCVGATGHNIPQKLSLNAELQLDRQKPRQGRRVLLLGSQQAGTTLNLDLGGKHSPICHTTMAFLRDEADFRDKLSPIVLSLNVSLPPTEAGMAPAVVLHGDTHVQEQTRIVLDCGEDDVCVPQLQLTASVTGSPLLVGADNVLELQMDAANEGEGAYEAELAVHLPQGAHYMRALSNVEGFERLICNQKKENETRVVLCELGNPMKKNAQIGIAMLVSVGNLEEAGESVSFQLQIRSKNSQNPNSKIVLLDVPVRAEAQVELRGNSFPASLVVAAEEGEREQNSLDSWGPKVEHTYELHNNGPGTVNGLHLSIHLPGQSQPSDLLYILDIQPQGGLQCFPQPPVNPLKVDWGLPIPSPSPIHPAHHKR
T2 sequence (P08514 891-1039 limits assumed): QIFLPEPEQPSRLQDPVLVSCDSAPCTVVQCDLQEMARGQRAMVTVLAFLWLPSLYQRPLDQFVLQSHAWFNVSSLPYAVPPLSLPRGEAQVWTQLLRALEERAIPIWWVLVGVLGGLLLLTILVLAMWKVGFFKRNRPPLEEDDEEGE
T2 sequence (P05106 27-788): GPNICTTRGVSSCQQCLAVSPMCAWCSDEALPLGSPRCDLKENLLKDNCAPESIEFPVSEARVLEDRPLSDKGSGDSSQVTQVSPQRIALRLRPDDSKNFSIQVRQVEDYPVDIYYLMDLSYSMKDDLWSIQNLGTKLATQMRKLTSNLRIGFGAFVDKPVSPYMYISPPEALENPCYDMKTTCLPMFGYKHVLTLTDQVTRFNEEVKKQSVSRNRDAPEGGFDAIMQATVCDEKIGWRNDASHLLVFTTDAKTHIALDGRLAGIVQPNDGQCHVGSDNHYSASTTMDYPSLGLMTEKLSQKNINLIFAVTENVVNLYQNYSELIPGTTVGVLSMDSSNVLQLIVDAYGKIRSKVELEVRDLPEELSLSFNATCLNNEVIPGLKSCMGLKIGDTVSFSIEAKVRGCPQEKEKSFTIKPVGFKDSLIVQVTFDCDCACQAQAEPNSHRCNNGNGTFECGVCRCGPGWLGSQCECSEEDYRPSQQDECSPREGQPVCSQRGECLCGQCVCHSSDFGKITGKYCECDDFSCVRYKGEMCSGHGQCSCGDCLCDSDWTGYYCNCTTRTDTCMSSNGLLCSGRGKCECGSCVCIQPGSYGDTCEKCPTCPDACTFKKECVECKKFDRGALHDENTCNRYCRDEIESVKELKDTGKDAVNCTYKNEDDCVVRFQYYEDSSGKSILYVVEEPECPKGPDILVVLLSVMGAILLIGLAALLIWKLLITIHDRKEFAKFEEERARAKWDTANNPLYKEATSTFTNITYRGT
T1 sequence (P08514 32-887 limits assumed): as the sequence (P08514 32-887 limits assumed) above
T1 sequence (P08514 891-1039 limits assumed): as the sequence (P08514 891-1039 limits assumed) above
T1 sequence (P05106 27-788): as the sequence (P05106 27-788) above
Sequence of αv β3 (P06756 31-889 limits assumed): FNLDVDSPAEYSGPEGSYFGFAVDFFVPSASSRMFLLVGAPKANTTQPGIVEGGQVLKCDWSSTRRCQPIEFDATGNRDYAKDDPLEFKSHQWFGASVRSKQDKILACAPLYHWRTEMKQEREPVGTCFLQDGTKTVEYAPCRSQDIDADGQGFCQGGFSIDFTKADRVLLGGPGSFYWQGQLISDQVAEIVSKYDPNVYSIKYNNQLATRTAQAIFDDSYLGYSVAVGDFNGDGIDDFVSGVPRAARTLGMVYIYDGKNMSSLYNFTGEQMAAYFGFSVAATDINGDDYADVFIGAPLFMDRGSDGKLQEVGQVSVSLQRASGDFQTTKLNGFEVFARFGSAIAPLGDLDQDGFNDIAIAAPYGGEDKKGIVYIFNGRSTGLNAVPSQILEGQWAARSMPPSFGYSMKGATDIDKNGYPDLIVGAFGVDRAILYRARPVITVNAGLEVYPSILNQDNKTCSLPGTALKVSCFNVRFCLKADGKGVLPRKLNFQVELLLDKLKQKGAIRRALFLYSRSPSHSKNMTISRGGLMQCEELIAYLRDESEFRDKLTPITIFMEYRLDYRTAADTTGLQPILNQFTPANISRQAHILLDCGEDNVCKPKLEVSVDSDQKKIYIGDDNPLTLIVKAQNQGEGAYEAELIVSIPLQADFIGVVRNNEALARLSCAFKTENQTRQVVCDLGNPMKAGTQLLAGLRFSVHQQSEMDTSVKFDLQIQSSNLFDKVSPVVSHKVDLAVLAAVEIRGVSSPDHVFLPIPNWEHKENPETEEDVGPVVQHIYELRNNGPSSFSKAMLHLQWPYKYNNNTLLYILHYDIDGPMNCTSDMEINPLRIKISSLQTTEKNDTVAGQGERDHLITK
Sequence of αv β3 (P06756 891-1048 limits assumed): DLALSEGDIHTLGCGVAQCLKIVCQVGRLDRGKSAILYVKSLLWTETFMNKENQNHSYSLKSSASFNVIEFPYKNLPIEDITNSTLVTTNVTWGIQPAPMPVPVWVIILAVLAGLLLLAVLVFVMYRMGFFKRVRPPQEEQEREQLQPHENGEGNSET
Sequence of αv β3 (P05106 27-788): as the sequence (P05106 27-788) above

C[C@@H](COc1ccc(N2CCN(c3ccncc3)CC2)cc1)CC(=O)O.Cl [Example 246, (-)-(3R)-3-Methyl-4-{4-[4-(4-pyridyl)piperazin-1-yl]phenoxy}butyric acid hydrochloride]
Kb [1]: 50.1 nM | IC50 ([2]; purified human platelet GPIIb/IIIa, ELISA, read-out: Test (b): pIC50 (-log(IC50)), 50% inhibition of biotinylated fibrinogen binding to GPIIb/IIIa (converted)): 22.4 nM | potency as a GPIIb/IIIa antagonist relative to the corresponding (+)-(3S) isomer ([2]; versus (+)-(3S) isomer): greater than 10 fold | IC50 (αv β3): > 100000 nM | pIC50, binding of αv β1 to fibronectin (αv β1): less than 4 | toxicity relative to the (3RS)-racemic mixture (by implication) ([3]; rat oral studies compared): less toxic than the (3RS)-racemic mixture of Example 203 | adverse effect on the rat liver (conclusion) ([3]; rat, 500 mg/kg/day): no significant adverse effect on the rat liver | adverse effects in the liver ([3]; rat, oral, 250 mg/kg/day, fourteen days): No adverse effects were noted in the livers | tolerability of the highest dose ([3]; rat, oral, 1000 mg/kg daily): not tolerated | adverse effect on the liver ([3]; rat, oral, 1000 mg/kg/day for three or four days then 500 mg/kg/day for ten or eleven days): no adverse effect on the liver
